US20120270935A1, “FORMULATIONS” (priority 2009, published 2012)

How the values were obtained:
S. pyogenes ATCC 12344 = assay: MBC assay; type: cell-based, Streptococcus pyogenes; settings: Mueller-Hinton broth pH 7.0
Excerpt: (a) staphylococci. The Staphylococcus aureus strain used was ATCC 29213. S. aureus and other staphylococci are common causes of a wide range of skin, skin structure and wound infections; S. aureus is also known to exacerbate eczema. The ATCC 29213 strain is known to be susceptible to beta-lactam antibiotics such as methicillin. The Staphylococcus epidermidis strain used was NCTC 11047. Staph. epidermidis forms part of the resident flora of skin and is an opportunistic pathogen which can cause biofilms to grow for instance on plastic surgical implants such as catheters. Unless otherwise stated, the staphylococci were cultured and maintained on Mueller-Hinton Medium (agar and broth) at pH 7.2; cultures were incubated aerobically at 37° C. for 19-20 hours, at pH 7 (±0.2). (b) C. striatum NCTC 764. Corynebacterium striatum is closely related to organisms (aerobic diphtheroids of the genus Corynebacterium) that cause body odour. It was cultured and maintained on Mueller-Hinton medium (agar and broth). All cultures were incubated aerobically at 37° C. for 72 hours, at pH 7 (±0.2). (c) streptococci. The strains tested were S. mutans ATCC 25175 and S. pyogenes ATCC 12344. S. mutans is a Gram-positive, microaerophilic bacterium which plays a significant role in dental caries and in infective endocarditis. Streptococcus pyogenes is associated with skin, soft tissue, burn and wound infections. […]

[1] = test system: S. epidermidis NCTC 11047; assay: MIC assay; type: cell-based, Staphylococcus epidermidis; settings: Mueller-Hinton broth pH 7.0
Excerpt: (a) staphylococci. The Staphylococcus aureus strain used was ATCC 29213. S. aureus and other staphylococci are common causes of a wide range of skin, skin structure and wound infections; S. aureus is also known to exacerbate eczema. The ATCC 29213 strain is known to be susceptible to beta-lactam antibiotics such as methicillin. The Staphylococcus epidermidis strain used was NCTC 11047. Staph. epidermidis forms part of the resident flora of skin and is an opportunistic pathogen which can cause biofilms to grow for instance on plastic surgical implants such as catheters. […]
This is a standard international method for quantitatively assessing the antimicrobial activity of a compound in a liquid medium. […]
The wells were inoculated with a liquid suspension of freshly grown micro-organism and incubated under the conditions described above. […] The MIC value was recorded as the lowest concentration of test compound required to inhibit microbial growth, ie the lowest concentration for which the liquid in the well remained clear. […]
Example 8 was repeated (except for the supplemented DDA assays), using S. aureus ATCC 29213 as the test organism. […] In the DDA assays, 200 μg is of each compound was loaded onto each disc: the culture medium was Mueller-Hinton agar at pH 7.0, and results were recorded after overnight incubation at 37° C. in air. […]

Molecule `CC(=O)c1c([O-])c(C)c([O-])c2c1OC1=CC(=O)C(C(C)=O)C(=O)C12C.[Cu+2]` (centres unmarked) [Copper usnate, copper (II) usnate] has an MBC (S. pyogenes ATCC 12344) of 0.98 µg/mL and an MIC [1] of 0.98 µg/mL.
